Laboratory results reported in patent US11401264B2, “Heterocyclic compound” (Orizuru Therapeutics, Inc., priority 2018, dated 2022).

What was measured:
[1] = system: cardiomyocytes from double knock-in human iPS cell lines (mCherry at TNNI3 locus); assay: Experimental Example 1: mCherry (TNNI3 reporter) immunostaining measured by high contents screening; format: cell-based; parameters: key to average fluorescent intensity (at 30 μM): —: The symbol in Table 2 means that the average fluorescent intensity cannot be evaluated due to cell decrease; conditions: read on 8th day, Alexa 647 anti-mCherry, control well 797; for average fluorescent intensity (at 1 μM): test compound 1 μM added on 3rd and 6th culture days; for average fluorescent intensity (at 30 μM): test compound 30 μM added on 3rd and 6th culture days
How it was run: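 Double knock-in iPS lines (EmGFP at TNNI1, mCherry at TNNI3) differentiated as embryoid bodies in stirred bioreactor at 37 °C, 5% O2: BMP4/activin A/bFGF, then VEGF, IWP-3, dorsomorphin, SB431542, then VEGF alone. On day 14, dissociated cells seeded at 1.0×10^4 cells/well on iMatrix-511 in AK02-based cardiomyocyte medium.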

[2] = system: cardiomyocytes (embryoid bodies) from double knock-in human iPS cell lines (mCherry at TNNI3 locus); assay: Experimental Example 2: mCherry expression in TNNI1+ cells by flow cytometry; format: cell-based; conditions: 3 μM, 8th-16th day, DMSO control 7.8
Description: For detection of cardiomyocyte maturation, double knock-in human iPS cell lines, in which reporter protein sequences, EmGFP (Sequence Number 1) and mCherry (Sequence Number 2) were inserted into gene loci for TNNI1 and TNNI3, respectively, were prepared (the human iPS cells were prepared from episomal vector (loaded gene; OCT3/4, KLF4, SOX2, L-MYC, LIN28, mouse p53DD) using PBMC (LP_167, Sample ID: 20130318) purchased from CTL (reference literature; Okita K, et al. Stem Cells. 2012 Nov. 29. doi: 10.1002/stem.1293)).
The maintenance culture of the above-mentioned reporter iPS cell lines was carried out by a conventional method (Okita K, et al. Stem Cells. 2012 Nov. 29. doi: 10.1002/stem.1293).
For differentiation induction into cardiomyocytes, the reporter iPS cell lines were treated with 0.5×TrypLE select (Life Technologies, diluted in 1/2 with 0.5 mM EDTA/PBS) for 4 to 5 minutes, and the cells were exfoliated using a cell scraper (IWAKI), and then dissociated into the single cell by pipetting. The medium was removed by centrifugation (1,000 rpm, 5 min), and the obtained cells were suspended in a medium prepared by adding 1% L-glutamine, transferrin 150 μg/mL, ascorbic acid 50 μg/mL (Sigma), monothioglycerol […], 10 μM Rock inhibitor (Y-27632), 2 ng/mL BMP4 (R&D) and 0.5% Matrigel (Growth Factor Reduced) to StemPro-34 SFM (ThermoFisher) in a 6 well-plate by 2×10^6 cells/1.5 mL/well, and then subjected to static culture at 37° C., under 5% oxygen condition to form embryoid bodies (0 day).
Next day (1st day), a medium prepared by adding 1% L-glutamine, transferrin 150 μg/mL, ascorbic acid 50 μg/mL (Sigma), monothioglycerol 4><10^−4 M, 1.8 μL (concentration 12 ng/mL) of 10 μg/mL activin A, […] (concentration 10 ng/mL) of 10 μg/mL bFGF and 2.7 μL (concentration 18 ng/mL) of 10 μg/mL BMP4 to 1.5 mL of StemPro-34 SFM (ThermoFisher) was added to each well of the 6 well plate containing the embryoid bodies to adjust the volume combined with the 0 day's medium to final 3 mL (activin A: 6 ng/ml, bFGF: 5 ng/ml, BMP4: 10 ng/ml), and the embryoid bodies were cultured at 37° C. for additional 2 days, under 5% oxygen condition.
Then (3rd day), the 6 well plate containing the embryoid bodies was inclined, and then left to stand for 1 to 2 minutes until the embryoid bodies were precipitated at the edges of the wells, and the supernatant was aspirated so as not to suck the embryoid bodies. Then, IMDM (ThermoFisher) medium was added to each well, and, as above, the plate was inclined, and then left to stand for 1 to 2 minutes, and the supernatant was aspirated so as not to suck the embryoid bodies. A medium prepared by adding 1% L-glutamine, transferrin 150 μg/mL, ascorbic acid 50 μg/mL (Sigma), monothioglycerol 4×10^−4 M, 10 ng/mL VEGF, 1 μM IWP-3, 0.6 μM dorsomorphin and 5.4 μM SB431542 to 3 mL of StemPro-34 SFM (ThermoFisher) was added to each well of the 6 well plate, and then the embryoid bodies were cultured at 37° C. for 3 days, under 5% oxygen condition.
Then (6th day), the 6 well plate containing the embryoid bodies was inclined, and then left to stand for 1 to 2 minutes until the embryoid bodies were precipitated at the edges of the wells, and the supernatant was aspirated so as not to suck the embryoid bodies. […]

| Structure (SMILES) | average fluorescent intensity (at 1 μM) [1] | average fluorescent intensity (at 30 μM) [1] | mCherry+ (%) [2] [%] |
| --- | --- | --- | --- |
| O=C1c2ccc(N3CCCCC3)cc2CN1c1ccc2[nH]c(-c3cccnc3)nc2c1 [Example 46, 5-(piperidin-1-yl)-2-(2-(pyridin-3-yl)-1H-benzimidazol-5-yl)isoindolin-1-one] | 1142 | 1616 | 47.2 |
| O=C1c2ccc(N3CCCCC3)cc2CN1c1ccc2[nH]c(-c3ccc(O)cc3)nc2c1 [Example 4, 2-(2-(4-hydroxyphenyl)-1H-benzimidazol-5-yl)-5-(piperidin-1-yl)isoindolin-1-one] | 1621 | 894 | 58.1 |
| O=C(COc1ccc(-c2nc3cc(N4Cc5cc(N6CCCCC6)ccc5C4=O)ccc3[nH]2)cc1)Nc1ccc2c(c1)CCS2(=O)=O [Example 17, N-(1,1-dioxido-2,3-dihydro-1-benzothiophen-5-yl)-2-(4-(5-(1-oxo-5-(piperidin-1-yl)-1,3-dihydro-2H-isoindol-2-yl)-1H-benzimidazol-2-yl)phenoxy)acetamide] | 1544 | 1079 | 42.1 |
| COc1ccc(-c2nc3cc(N4Cc5ccccc5C4=O)ccc3[nH]2)cc1 [Example 7, 2-(2-(4-methoxyphenyl)-1H-benzimidazol-5-yl)isoindolin-1-one] | 859 | 1631 |  |
| O=C(COc1ccc(-c2nc3cc(N4Cc5cc(N6CCOCC6)ccc5C4=O)ccc3[nH]2)cc1)NC1CCOCC1 [Example 31, 2-(4-(5-(5-(morpholin-4-yl)-1-oxo-1,3-dihydro-2H-isoindol-2-yl)-1H-benzimidazol-2-yl)phenoxy)-N-(tetrahydro-2H-pyran-4-yl)acetamide] | 736 | 888 |  |
| CC(C)NC(=O)COc1ccc(-c2nc3cc(N4Cc5cc(N6CCOCC6)ccc5C4=O)ccc3[nH]2)cc1 [Example 29, N-isopropyl-2-(4-(5-(5-(morpholin-4-yl)-1-oxo-1,3-dihydro-2H-isoindol-2-yl)-1H-benzimidazol-2-yl)phenoxy)acetamide] | 1120 | 910 |  |
| O=C(COc1ccc(-c2nc3cc(N4Cc5cc(N6CCCCC6)ccc5C4=O)ccc3[nH]2)cc1)NCCCc1ccncc1 [Example 12, 2-(4-(5-(1-oxo-5-(piperidin-1-yl)-1,3-dihydro-2H-isoindol-2-yl)-1H-benzimidazol-2-yl)phenoxy)-N-(3-(pyridin-4-yl)propyl)acetamide] | 1675 | 1226 |  |
| O=C1c2ccc(N3CCCCC3)cc2CN1c1ccc2[nH]c(-c3cccs3)nc2c1 [Example 41, 5-(piperidin-1-yl)-2-(2-(2-thienyl)-1H-benzimidazol-5-yl)isoindolin-1-one] | 1107 | 1571 |  |
| O=C1c2ccc(N3CCCCC3)cc2CN1c1ccc2[nH]c(-c3ccncc3)nc2c1 [Example 45, 5-(piperidin-1-yl)-2-(2-(pyridin-4-yl)-1H-benzimidazol-5-yl)isoindolin-1-one] | 1130 | 814 | 66.6 |
| CN(C)C(=O)C(NC(=O)COc1ccc(-c2nc3cc(N4Cc5cc(N6CCCCC6)ccc5C4=O)ccc3[nH]2)cc1)c1ccccc1 (centres unmarked) [Example 13, N,N-dimethyl-2-(((4-(5-(1-oxo-5-(piperidin-1-yl)-1,3-dihydro-2H-isoindol-2-yl)-1H-benzimidazol-2-yl)phenoxy)acetyl)amino)-2-phenylacetamide] | 1212 | — |  |
| CC1(O)CCN(C(=O)COc2ccc(-c3nc4cc(N5Cc6cc(N7CCCCC7)ccc6C5=O)ccc4[nH]3)cc2)CC1 [Example 15, 2-(2-(4-(2-(4-hydroxy-4-methylpiperidin-1-yl)-2-oxoethoxy)phenyl)-1H-benzimidazol-5-yl)-5-(piperidin-1-yl)isoindolin-1-one] | 1701 | 2697 |  |
| COC(=O)COc1ccc(-c2nc3cc(N4Cc5cc(N6CCCCC6)ccc5C4=O)ccc3[nH]2)cc1 [Example 5, methyl (4-(5-(l-oxo-5-(piperidin-1-yl)-1,3-dihydro-2H-isoindol-2-yl)-1H-benzimidazol-2-yl)phenoxy)acetate] | 1078 | — |  |
| CCCNC(=O)COc1ccc(-c2nc3cc(N4Cc5cc(N6CCCCC6)ccc5C4=O)ccc3[nH]2)cc1 [Example 28, 2-(4-(5-(1-oxo-5-(piperidin-1-yl)-1,3-dihydro-2H-isoindol-2-yl)-1H-benzimidazol-2-yl)phenoxy)-N-propylacetamide] | 1540 | — |  |
| O=C1c2ccc(N3CCCCC3)cc2CN1c1ccc2[nH]c(C3CCOCC3)nc2c1 [Example 43, 5-(piperidin-1-yl)-2-(2-(tetrahydro-2H-pyran-4-yl)-1H-benzimidazol-5-yl)isoindolin-1-one] | 1087 | 1153 |  |
